# In patent publication US5665739A, “Substituted benzoylguanidines, process and their preparation, their use as pharmaceutical or diagnostic, and pharmaceutical containing them” (priority 1992, dated 1997):
# Assays:
# Na^+ /H^+ exchanger = molecular target: T1, Na^+ /H^+ exchanger (Oryctolagus cuniculus, UniProt P23791); test: Inhibition of the Na+/H+ exchanger of rabbit erythrocytes; assay type: cell-based; conditions: amiloride-sensitive Na+ influx, pH 7.4, 37° C.
# T1 construct: endogenous in cells; host or cells: rabbit erythrocytes (blood of cholesterol-fed White New Zealand rabbits)
# From the text: Inhibition of the Na^+ /H^+ exchanger of rabbit erythrocytes
# White New Zealand rabbits (Ivanovas) were given a standard diet containing 2% of cholesterol for six weeks so as to activate the Na^+ /H^+ exchange in order to be able to determine the Na^+ influx into the erythrocytes via Na^+ /H^+ exchange by means of flame photometry. The blood was sampled from the auricular artery and made incoagulable by addition of 25 IE of potassium heparin. Part of each sample was used for a repeated hematocrit measurement by centrifuging. 100 μl aliquots were used for measuring the initial Na^+ content of the erythrocytes.
# To determine the amiloride-sensitive sodium influx, 100 μl of each blood sample were incubated in in each case 5 ml of a hyperosmolaric salt/sucrose medium (mmol/l: 140 NaCl, 3 KCl, 150 sucrose, 0.1 ouabain, 20 tris-hydroxymethylaminomethane) at pH 7.4 and 37° C. […] The intracellular sodium content was determined by flame photometry.
# The Na^+ net influx was calculated from the difference between the initial sodium values and the sodium content of the erythrocytes after incubation. The sodium influx which can be inhibited by amiloride was determined from the difference of the sodium content of the erythrocytes after incubation with and without amiloride 3×10^-4 mol/l. […]
# [1] = system: artificially induced ventricular fibrillation; conditions: rats' hearts; Eur. Heart J. 9 (suppl. 1): 167 (1988); cited from earlier work
# [2] = in vivo; cited from earlier work
# T1 sequence (P23791 whole entry): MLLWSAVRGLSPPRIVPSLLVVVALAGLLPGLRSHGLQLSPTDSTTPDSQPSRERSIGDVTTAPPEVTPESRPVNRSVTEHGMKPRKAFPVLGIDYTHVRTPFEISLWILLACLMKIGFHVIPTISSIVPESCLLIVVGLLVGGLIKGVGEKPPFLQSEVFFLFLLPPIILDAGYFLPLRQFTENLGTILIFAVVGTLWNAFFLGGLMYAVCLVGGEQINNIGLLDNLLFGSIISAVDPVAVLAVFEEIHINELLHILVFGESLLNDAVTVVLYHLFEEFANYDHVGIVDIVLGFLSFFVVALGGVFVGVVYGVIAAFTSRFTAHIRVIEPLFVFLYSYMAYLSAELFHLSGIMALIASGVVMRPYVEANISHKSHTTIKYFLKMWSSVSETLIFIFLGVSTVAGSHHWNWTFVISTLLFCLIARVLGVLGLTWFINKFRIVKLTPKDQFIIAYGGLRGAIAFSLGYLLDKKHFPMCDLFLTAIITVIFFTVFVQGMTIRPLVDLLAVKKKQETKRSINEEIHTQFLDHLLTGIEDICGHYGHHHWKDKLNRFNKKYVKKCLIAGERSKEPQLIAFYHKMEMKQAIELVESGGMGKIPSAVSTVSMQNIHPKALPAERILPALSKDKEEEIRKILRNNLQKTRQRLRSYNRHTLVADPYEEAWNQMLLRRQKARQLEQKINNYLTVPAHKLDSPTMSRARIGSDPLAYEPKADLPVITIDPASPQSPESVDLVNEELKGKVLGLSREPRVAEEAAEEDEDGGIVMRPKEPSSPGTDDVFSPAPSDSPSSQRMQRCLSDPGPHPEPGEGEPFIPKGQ
SMILES,IC50 (Na^+ /H^+ exchanger) [nM],suppression of artificially induced ventricular fibrillation [1],hypotensive and saluretic side effects [2]
"NC(N)=NC(=O)c1ccc(Oc2ccc3ncccc3c2)c(C(F)(F)F)c1 [Example 17, 4-(6-Quinolinoxy)-3-trifluoromethylbenzoylguanidine]",40,–,–
"NC(N)=NC(=O)c1ccc(Oc2cccnc2)c(C(F)(F)F)c1 [Example 16, 4-(3-Pyridyloxy)-3-trifluoromethylbenzoylguanidine]",30,–,–
"CCN(c1nc(N)c(C(=O)N=C(N)N)nc1Cl)C(C)C [ethylisopropylamiloride, Ethylisopropylamiloride]",–,even more potent than amiloride itself,–
"NC(N)=NC(=O)c1nc(Cl)c(N)nc1N [amiloride, Amiloride]",–,suppressed completely,accompanied by a hypotensive and saluretic activity
